The values below come from US5449677A, “Cyclic benzylamino, benzylamido and benzylimido antipsychotic agents” (McNeilab, Inc., priority 1993, dated 1995).

Molecules are shown by their SMILES. Counter-ions that a name gives are not always drawn.

A short description of the assay: Block of Conditioned Avoidance Responding (Rat) test (CAR). In kind it is in vivo, male Fischer 344 rats. Conditions: po, read-out: % inhibition CAR. The method, then:
The sessions consist of 60 trials, one every minute.
% change CAR=((Day 2% CAR/Day 1% CAR)×100)-100
Failure to escape was calculated for each animal as follows:
% Failures=#of Failures to Escape/#of trials

As for `CC(C)Oc1ccccc1N1CCN(Cc2cccc(CN3CCCCC3=O)c2)CC1` [CP #1, 1-[[3-[[1-[2-(1-Methylethoxy)phenyl]-4-piperazinyl]methyl]phenyl]methyl]piperidin-2-one Hydrochloride (3:2)], the change in vivo at 5 mg/kg is -89%.

In the case of `CC(C)Oc1ccccc1N1CCN(Cc2ccccc2CN2CCCCC2=O)CC1` [CP #3, 1-[[2-[[1-[2-(1-Methylethoxy)phenyl]-4-piperazinyl]methyl]phenyl]methyl]-piperidin-2-one Hydrochloride (3:2)], the change in vivo at 5 mg/kg was -6%.

On to `CC(C)Oc1ccccc1N1CCN(Cc2ccc(CN3CCCCC3=O)cc2)CC1` [CP #2, 1-[[4-[[1-[2-(1-Methylethoxy)phenyl]-4-piperazinyl]methyl]phenyl]methyl]-piperidin-2-one Hydrochloride (5:1)], for which the change in vivo at 5 mg/kg is -29%.
